{"source": "paper PMC5078090", "about": "“In vivo screening and discovery of novel candidate thalidomide analogs in the zebrafish embryo and chicken embryo model systems” (Oncotarget, 2016)", "key": {"[1]": {"test_system": "chicken embryos", "test": "In ovo chicken embryo teratogenicity assay", "assay_type": "in vivo, white leghorn chicken", "conditions": "for Lowest effective concentration, Chicken assay: HH stage 17-18 embryos, where no activity was seen the concentration shown is the lowest screened; for Defects in chicken embryo development (text and figure legend): applied at HH stage 17-18, result in words; for Teratogenicity in these assays: chicken and zebrafish embryo assays together, result in words; for Damage observed: HH stage 17-18 chicken embryos, 100 μg/mL", "method": "Compounds of interest were screened in chicken and/or zebrafish embryos (Figure 4), to determine if these compounds are teratogenic. The chicken embryo is well established as a model to determine the action of compounds upon development.\nFertilized white leghorn chicken embryos were incubated at 38°C and staged according to the Hamburger and Hamilton (HH) stages of development. Embryos were tested at HH stage 17-18 (day 2.5). Following membrane removal test compounds or vehicle control solutions were applied over the embryo. The eggs were sealed and the development of the embryos was monitored up to HH stage 30 (E9). A minimum of 3 embryos were used per concentration, per drug."}, "[2]": {"test_system": "TNF-α", "parameters": "method as in PMID 22642825, PMID 22277195", "conditions": "cited from earlier work"}, "[3]": {"test_system": "Tg(MPO::EGFP)^114 zebrafish", "test": "Tg(MPO::EGFP)^114 zebrafish tail fin clip assay of neutrophil migration to the wound site", "assay_type": "in vivo", "conditions": "for minimal effective concentration: Danio rerio, Neutrophil, fin clipped at 72 hpf, imaged at 24 h, screened 1-200 μg/mL, where no activity was seen the concentration shown is the lowest screened; for Effect on neutrophil migration to the wound site (anti-inflammatory activity): fin clipped 72 hpf embryos, result in words", "text": "To assess the immunomodulatory effects of the thalidomide analogs across the concentration range used in the previous assay, the transgenic zebrafish line Tg(MPO::EGFP)^114 was used. These embryos express GFP tagged myeloperoxidase, marking neutrophils during the inflammatory response, for example following injury. […] This allowed us to subsequently assess the anti-inflammatory activity of each compound by immersing embryos in the test drug or vehicle. The embryos were examined for migration of neutrophils to the wound site. In comparison to control embryos (Figure 3A) compounds with anti-inflammatory properties had reduction of at least 50% of neutrophils recruited to the wound site (Figure 3). […] We also screened the previously identified six anti-angiogenic compounds of interest in the Tg(MPO::EGFP)^114 line.\nFigure 3 The effect of thalidomide analogs on the inflammatory response to wound healing A. Zebrafish (72 hpf) embryos transgenic for a fluorescently tagged neutrophil marker Tg(MPO::EGFP)^114 were fin clipped to induce an inflammatory response and exposed to vehicle or a test compound. Broken line indicates the tail fin with cut and area of the wound site. […] The data represent the mean + the standard error of the mean.\nTg(MPO::EGFP)^114 embryos were tail fin clipped as previously detailed and incubated with test compounds or vehicle control at 72 hpf. Fish were imaged at 24 hours and the number of migratory neutrophils present at the wound site were counted. Compounds inducing an at least 50% reduction of neutrophils to the wound site were considered to have anti-inflammatory properties in this system. All larvae were assessed for viability and morphological integrity. A minimum of 10 embryos were used per concentration per drug. Error bars represent standard error of the mean.\n(§1) A broad series of novel thalidomide-based compounds were chemically synthesized (WL, NHG and WDF, NIH), dissolved in DMSO, stored in stock concentrations between 10-100 mg/mL, and used at a final working DMSO concentration of 0.1%. The chemical structures of lead compounds of interest were confirmed by chemical characterization (purity >99.5%). Compounds were screened across a range of concentrations from 1-200 μg/mL to determine the lowest effective concentration."}, "[4]": {"test_system": "fli1:EGFP zebrafish embryos", "test": "fli1:EGFP zebrafish embryo angiogenesis assay (intersegmental vessel outgrowth and number)", "assay_type": "in vivo", "conditions": "for minimal effective concentration: Danio rerio, 24 h, 24 hpf embryos exposed 24 h, screened 1-200 μg/mL, where no activity was seen the concentration shown is the lowest screened; for Anti-angiogenic activity (loss of ISVs or inhibition of ISV outgrowth): fli1:EGFP embryos, 24 h incubation, result in words", "method": "To determine if our novel thalidomide analogs (Figure 1) had any effect on in vivo angiogenesis, we used fli1:EGFP embryos which express green fluorescent protein (GFP) on endothelial cells throughout development. Embryos were allowed to develop for 24 hours, then exposed to either vehicle or a compound of interest at the concentration range of 1 to 200 μg/mL. During this time the vasculature is rapidly expanding and developing new, naive intersegmental vessels (ISVs). The embryos were imaged after 24 hours of incubation with the drug (Figure 2A). […] We also observed that the potency of each compound varied.\nFigure 2 The effect of novel thalidomide analogs on vessel length fli1:EGFP zebrafish were incubated with vehicle or compounds for 24 hours, at which point vessel outgrowth and number were measured. A. Images of zebrafish exposed to the vehicle or test compounds. […] Treatment with C4 (1.5 μg/mL), C18 (50 μg/mL), C81 (50 μg/mL), C82 (5 μg/mL), C83 (20 μg/mL) and C84 (50 μg/mL) show reduction in vessel out growth (white arrow) and in some cases loss of vessel (white asterisks). B. Stalk length & C. stalk number are reduced. Compounds are shown at the lowest concentration producing an effect. The data represent the mean + the standard error of the mean.\nZebrafish embryos were treated with analogs as previously described. Briefly, fli1:EGFP embryos were collected and embryos were allowed to develop for 24 hours. Embryos were dechorionated manually and exposed to test compounds or vehicle control (0.1% DMSO) for a further 24 hours. Embryos were anesthetized with 0.05% MS222 (Tricaine) (Sigma Aldrich) and live visualization of blood vessels was carried out.\nas §1"}, "[5]": {"test_system": "TNF-α", "parameters": "method as in PMID 22642825, PMID 22277195", "conditions": "rats challenged with systemic LPS; cited from earlier work"}, "[6]": {"test_system": "WT Zebrafish", "test": "WT zebrafish embryo developmental defect (teratogenicity) screen", "assay_type": "in vivo", "conditions": "for Eye development / eye diameter in zebrafish embryos / Pectoral fin development / fin length in zebrafish embryos: Figure 4, result in words; for Lowest effective concentration, WT Zebrafish assay: screened 1-200 μg/mL, where no activity was seen the concentration shown is the lowest screened"}}, "note": "“Also recorded” adds a separate entry of the source."}
{"smiles": "O=C1NC(=S)CCC1N1C(=O)c2ccccc2C1=S", "note": "(centres unmarked) [Compound C2, 2,3-dihydro-2-(2-oxo-6-thioxo-3-piperidinyl)-3-thioxo-1H-isoindol-1-one]", "values": [{"measurement": "Lowest effective concentration, Chicken assay", "setting": "[1]", "result": 100, "unit": "µg/mL"}, {"measurement": "Defects in chicken embryo development (text and figure legend)", "setting": "[1]", "result": "no effect"}, {"measurement": "Teratogenicity in these assays", "setting": "[1]", "result": "non-teratogenic"}, {"measurement": "Effect on LPS-induced elevations in TNF-α, cultured RAW 264.7 cells", "setting": "[2]", "result": "potently lower lipopolysaccharide (LPS)-induced elevations in TNF-α"}, {"measurement": "minimal effective concentration", "setting": "[3]", "result": 10, "unit": "µg/mL"}, {"measurement": "Effect on neutrophil migration to the wound site (anti-inflammatory activity)", "setting": "[3]", "result": "reduced neutrophil migration; also recorded: significant anti-inflammatory action"}, {"measurement": "minimal effective concentration", "setting": "[4]", "result": 10, "unit": "µg/mL"}, {"measurement": "Anti-angiogenic activity (loss of ISVs or inhibition of ISV outgrowth)", "setting": "[4]", "result": "without anti-angiogenic activities"}, {"measurement": "Effect on LPS-induced elevations in TNF-α, plasma and brain of rats", "setting": "[5]", "result": "potently lower lipopolysaccharide (LPS)-induced elevations in TNF-α"}, {"measurement": "Eye development / eye diameter in zebrafish embryos", "setting": "[6]", "result": "normal eye development"}, {"measurement": "Pectoral fin development / fin length in zebrafish embryos", "setting": "[6]", "result": "normal"}, {"measurement": "Lowest effective concentration, WT Zebrafish assay", "setting": "[6]", "result": 10, "unit": "µg/mL"}]}
{"smiles": "O=C1CCC(N2C(=O)c3ccncc3C2=O)C(=O)N1", "note": "(centres unmarked) [Compound C58, 5-Aza-thalidomide]", "values": [{"measurement": "Lowest effective concentration, Chicken assay", "setting": "[1]", "result": 100, "unit": "µg/mL"}, {"measurement": "Defects in chicken embryo development (text and figure legend)", "setting": "[1]", "result": "no effect"}, {"measurement": "Teratogenicity in these assays", "setting": "[1]", "result": "non-teratogenic"}, {"measurement": "minimal effective concentration", "setting": "[3]", "result": 5, "unit": "µg/mL"}, {"measurement": "Effect on neutrophil migration to the wound site (anti-inflammatory activity)", "setting": "[3]", "result": "reduced neutrophil migration"}, {"measurement": "Migration of neutrophils relative to control", "setting": "[3]; fin clipped embryos, Figure 3", "result": "10 % of the control"}, {"measurement": "minimal effective concentration", "setting": "[4]", "result": 10, "unit": "µg/mL"}, {"measurement": "Anti-angiogenic activity (loss of ISVs or inhibition of ISV outgrowth)", "setting": "[4]", "result": "without anti-angiogenic activities"}, {"measurement": "Lowest effective concentration, WT Zebrafish assay", "setting": "[6]", "result": 5, "unit": "µg/mL"}]}
{"smiles": "O=C1c2ccccc2C(=O)N1c1nc2ccc(C(F)(F)F)cc2s1", "note": "[Compound C59]", "values": [{"measurement": "Defects in chicken embryo development (text and figure legend)", "setting": "[1]", "result": "no effect"}, {"measurement": "Teratogenicity in these assays", "setting": "[1]", "result": "non-teratogenic"}, {"measurement": "minimal effective concentration", "setting": "[3]", "result": 100, "unit": "µg/mL"}, {"measurement": "Effect on neutrophil migration to the wound site (anti-inflammatory activity)", "setting": "[3]", "result": "reduced neutrophil migration"}, {"measurement": "minimal effective concentration", "setting": "[4]", "result": 10, "unit": "µg/mL"}, {"measurement": "Anti-angiogenic activity (loss of ISVs or inhibition of ISV outgrowth)", "setting": "[4]", "result": "without anti-angiogenic activities"}, {"measurement": "Lowest effective concentration, WT Zebrafish assay", "setting": "[6]", "result": 100, "unit": "µg/mL"}]}
{"smiles": "CC(N1Cc2c(N)cccc2C1=O)C12CC3CC(CC(C3)C1)C2", "note": "(centres unmarked) [Compound C81]", "values": [{"measurement": "Damage observed", "setting": "[1]", "result": "Hemorrhaging, microopthalmia,"}, {"measurement": "Lowest effective concentration, Chicken assay", "setting": "[1]", "result": 100, "unit": "µg/mL"}, {"measurement": "Defects in chicken embryo development (text and figure legend)", "setting": "[1]", "result": "microphthalmia; also recorded: growth reduction and hemorrhaging throughout head"}, {"measurement": "minimal effective concentration", "setting": "[3]", "result": 50, "unit": "µg/mL"}, {"measurement": "Anti-angiogenic activity (loss of ISVs or inhibition of ISV outgrowth)", "setting": "[4]", "result": "anti-angiogenic activity"}, {"measurement": "Lowest effective anti-angiogenic concentration, fli1:EGFP assay (molar)", "setting": "[4]; inhibition of vessel outgrowth and number, 24 h exposure", "result": 161.07, "unit": "µM"}, {"measurement": "Pectoral fin development / fin length in zebrafish embryos", "setting": "[6]", "result": "reductions"}, {"measurement": "Lowest effective concentration, WT Zebrafish assay", "setting": "[6]", "result": 10, "unit": "µg/mL"}]}
{"smiles": "O=C1c2cccc([N+](=O)[O-])c2CN1C1C2CC3CC(C2)CC1C3", "note": "(centres unmarked) [Compound C82]", "values": [{"measurement": "Damage observed", "setting": "[1]", "result": "Limb reduction defect"}, {"measurement": "Lowest effective concentration, Chicken assay", "setting": "[1]", "result": 100, "unit": "µg/mL"}, {"measurement": "Defects in chicken embryo development (text and figure legend)", "setting": "[1]", "result": "limb and digit defects"}, {"measurement": "minimal effective concentration", "setting": "[3]", "result": 5, "unit": "µg/mL"}, {"measurement": "Effect on neutrophil migration to the wound site (anti-inflammatory activity)", "setting": "[3]", "result": "significantly reduce neutrophil migration"}, {"measurement": "Anti-angiogenic activity (loss of ISVs or inhibition of ISV outgrowth)", "setting": "[4]", "result": "anti-angiogenic activity"}, {"measurement": "Eye development / eye diameter in zebrafish embryos", "setting": "[6]", "result": "reductions in eye diameter"}, {"measurement": "Pectoral fin development / fin length in zebrafish embryos", "setting": "[6]", "result": "reductions"}, {"measurement": "Lowest effective concentration, WT Zebrafish assay", "setting": "[6]", "result": 5, "unit": "µg/mL"}]}
{"smiles": "Nc1cccc2c1CN(C1C3CC4CC(C3)CC1C4)C2=O", "note": "(centres unmarked) [Compound C83]", "values": [{"measurement": "Damage observed", "setting": "[1]", "result": "Necrotic YSM, hemorrhaging"}, {"measurement": "Lowest effective concentration, Chicken assay", "setting": "[1]", "result": 100, "unit": "µg/mL"}, {"measurement": "Defects in chicken embryo development (text and figure legend)", "setting": "[1]", "result": "hemorrhaging; also recorded: abnormal blood vessels and necrotic-like regions in the surrounding yolk sac membrane"}, {"measurement": "minimal effective concentration", "setting": "[3]", "result": 20, "unit": "µg/mL"}, {"measurement": "Anti-angiogenic activity (loss of ISVs or inhibition of ISV outgrowth)", "setting": "[4]", "result": "anti-angiogenic activity"}, {"measurement": "Eye development / eye diameter in zebrafish embryos", "setting": "[6]", "result": "reductions in eye diameter"}, {"measurement": "Lowest effective concentration, WT Zebrafish assay", "setting": "[6]", "result": 10, "unit": "µg/mL"}]}
{"smiles": "O=C1c2cccc([N+](=O)[O-])c2CN1C12CC3CC(CC(C3)C1)C2", "note": "[Compound C84]", "values": [{"measurement": "Damage observed", "setting": "[1]", "result": "Hemorrhaging"}, {"measurement": "Lowest effective concentration, Chicken assay", "setting": "[1]", "result": 100, "unit": "µg/mL"}, {"measurement": "Defects in chicken embryo development (text and figure legend)", "setting": "[1]", "result": "hemorrhaging"}, {"measurement": "minimal effective concentration", "setting": "[3]", "result": 10, "unit": "µg/mL"}, {"measurement": "Anti-angiogenic activity (loss of ISVs or inhibition of ISV outgrowth)", "setting": "[4]", "result": "anti-angiogenic activity"}, {"measurement": "Eye development / eye diameter in zebrafish embryos", "setting": "[6]", "result": "reductions in eye diameter"}, {"measurement": "Lowest effective concentration, WT Zebrafish assay", "setting": "[6]", "result": 10, "unit": "µg/mL"}]}
